# Assay results from patent publication US9682078B2, “Compositions and methods for tissue engineering and cell based therapies” (University of Virginia Patent Foundation, priority 2011, dated 2017).
# Experiments:
# [1] = tested on: ischemic spinotrapezius muscle; assay: Arterial ligation of spinotrapezius muscle with PLAGA film implantation, confocal microscopy; format: in vivo, mouse; conditions: FIG. 7
# Text: (§1) Backpacks were implanted with PLAGA films and collagenase was used to digest dorsal tissue directly around the implants after 3 days to create single cell suspensions. Flow cytometry was used to assess cellular content. A feeder artery to the spinotrapezius muscle was ligated, creating an ischemic environment, and confocal microscopy on whole-mounted tissue was used to assess CX3CR1 expression in the muscle (FIG. 5).
# [2] = tested on: CD45+/CD11b+/Ly6Clow/CX3CR1high anti-inflammatory monocytes (AM); assay: Transwell migration of sorted anti-inflammatory monocytes after FTY720 pre-treatment; format: cell-based, mouse; conditions: FIG. 6A
# Text: (§2) CD45^+/CD11b^+/Ly6C^low/CX3CR1^high anti-inflammatory monocytes (AM) and CD45^+/CD11b^+/Ly6C^high/CX3CR1^low inflammatory monocytes (IM) (FIG. 6C) were sorted from mouse marrow. […] In vivo, in tissue from the murine dorsal skinfold window chamber, the recruitment of IMs to dorsal tissue was attenuated with local FTY720 application from PLAGA films (FIG. 6D). Cells that are CD45^+/CD11b^+/Ly6C^high/CX3CR1^low/CD105^+ and have a decreasing expression of Sca1 (a progenitor cell marker) are consistent with endothelial progenitor derived endothelial cells (EPC-ECs). […] Local FTY720 stimulation attenuates the infiltration of inflammatory cells and recruits regenerative stem cells. (See FIGS. 3-6).
# [3] = tested on: dorsal tissue; assay: Murine dorsal skinfold window chamber with PLAGA films, flow cytometry of dorsal tissue; format: in vivo, mouse; conditions: local application from PLAGA films
# Description: (§3) 1 mm poly(lactic-co-glycolic acid) PLAGA films loaded with S1P receptor compounds are placed within the window chamber as shown. Repeated measurements of the same vessel networks are recorded and quantified over a 7-day time course using intravital microscopy. (FIG. 3).
# as §1
# [4] = tested on: Lineage1−/Sca1+/c-kit+ (LSK) hematopoietic stem cells; assay: Transwell migration of sorted LSK hematopoietic stem cells toward SDF-1 and S1P; format: cell-based, mouse; conditions: cells pre-treated with compound (15 nM for VPC01091, VPC01211)
# Description: Whole bone marrow cells were harvested from C57Bl/6 mice tibiae. They were pre-labeled with antibodies against Lineage 1, Sca1, and c-kit and the LSK subset were sorted, serum starved, and plated at equal concentration after pre-treatment with FTY720. Migration toward media, SDF1, and S1P was calculated.
# Hematopoietic stem cell migration was also studied (FIG. 17). Lineage1−/Sca1+/c-kit+ (LSK) hematopoietic stem cells were sorted and serum starved for two hours. Cells were pre-treated with 15 nM VPC01211 or not and plated for transwell migration assays toward plain media, SDF-1 or S1P.
# [5] = tested on: critical size calvarial bone defects; conditions: 3D PLAGA scaffolds delivering FTY720; cited from earlier work
# [6] = tested on: CD45+/CD11b+/Ly6Chigh/CX3CR1low inflammatory monocytes (IM); assay: Transwell migration of sorted inflammatory monocytes after FTY720 pre-treatment; format: cell-based, mouse; conditions: FIG. 6B
# Text: as §2
# [7] = in vivo; cited from earlier work
# [8] = tested on: dorsal microvasculature; conditions: sustained release from 50:50 PLAGA films (1:200 wt/wt); cited from earlier work
# [9] = tested on: dorsal microvasculature; assay: Murine dorsal skinfold window chamber, intravital microscopy of microvascular remodeling; format: in vivo, mouse; conditions: S1P3 selectively antagonized on marrow-derived cells (BM S1P3−/−); 3 days post-implantation; FIG. 8
# Description: as §3
# [10] = tested on: bone marrow cells; assay: Transwell migration of bone marrow cells toward SDF-1; format: cell-based, rat; conditions: pre-treated 10 ng/ml 30 minutes
# Description: Bone marrow cells were collected from the tibia of Sprague Daley rats (Charles River), scrum starved for 2 hours, and the cell suspension at 2×10^6 cells/ml was pre-treated with serum-free medium, or 10 ng/ml FTY720-P (Cayman) for 30 minutes and then were re-suspended in serum-free DMEM (Invitrogen). 100 μl of the pre-treated cell suspension was added to the top of 5 μm transwell inserts (Costar) in a 24-well plate. The bottom of the wells contained 600 μl of serum-free DMEM or 12.5 nM SDF-1 (ProspecBio). The cells were incubated at 37° C. for 4 hours, and then the number of cells at the top and the bottom of the transwells were counted using an automatic cell counter. The cells that migrated toward SDF-1 after pre-treatment with FTY720-P were collected from the bottom of the transwells and treated with monoclonal antibodies to CD45, CD11b and CD90 prior to flow analysis. Flow cytometry was performed according to standard procedures and was analyzed on a 9 color CyAn flow cytometer.
# [11] = in the absence of a carrier protein; cited from earlier work
# [12] = tested on: 5 mm cranial defects; assay: Rat cranial critical size bone defect, microCT and flow cytometry; format: in vivo
# Description: 5 mm cranial defects were made in 36 nine weeks old Sprague Daley rats, which were divided into 4 groups (n=9). The rats were treated with a systemic dose of 1 mpk VPC01091, FTY720 coated semi-circular allograft, FTY720 coated semi-circular allograft+a systemic dose of 1 mpk VPC01091 or left untreated. VPC01091 was given the day after surgery and 3 weeks post-surgery. Hemavet (Drew Scientifics) was used to measure the concentrations of blood cells at days 0, week 1 and week 2 (n=6) (data not shown). The amount of bone regeneration was measured bi-weekly with microCT imaging (n=3-9). Flow cytometry was performed according to standard procedures on the tissue harvested from the defect sites at week 3 (n=3), and from peripheral blood at week 6 (n=3). Monoclonal antibodies (Invitrogen, Abeam) for rat CD45, CD11b, CD54, CD90 were used in both cases. Mason's Trichrome and H&E staining were done for done for all groups (n=3).
# [13] = biological target: S1P1 receptor (Homo sapiens, UniProt P21453); conditions: cited from earlier work
# Sequence of S1P1 receptor (P21453 whole entry): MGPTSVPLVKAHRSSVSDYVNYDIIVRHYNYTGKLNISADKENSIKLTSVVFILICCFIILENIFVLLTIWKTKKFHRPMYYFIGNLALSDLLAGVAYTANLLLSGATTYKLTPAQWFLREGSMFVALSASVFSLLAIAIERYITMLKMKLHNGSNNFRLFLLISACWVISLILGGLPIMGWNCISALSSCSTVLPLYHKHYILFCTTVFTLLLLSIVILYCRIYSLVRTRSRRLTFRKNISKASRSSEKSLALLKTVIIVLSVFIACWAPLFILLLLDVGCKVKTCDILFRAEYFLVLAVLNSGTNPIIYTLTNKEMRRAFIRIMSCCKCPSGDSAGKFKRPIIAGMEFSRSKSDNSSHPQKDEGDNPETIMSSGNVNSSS
# [14] = biological target: S1P3 receptor (Homo sapiens, UniProt Q99500); conditions: cited from earlier work
# Sequence of S1P3 receptor (Q99500 whole entry): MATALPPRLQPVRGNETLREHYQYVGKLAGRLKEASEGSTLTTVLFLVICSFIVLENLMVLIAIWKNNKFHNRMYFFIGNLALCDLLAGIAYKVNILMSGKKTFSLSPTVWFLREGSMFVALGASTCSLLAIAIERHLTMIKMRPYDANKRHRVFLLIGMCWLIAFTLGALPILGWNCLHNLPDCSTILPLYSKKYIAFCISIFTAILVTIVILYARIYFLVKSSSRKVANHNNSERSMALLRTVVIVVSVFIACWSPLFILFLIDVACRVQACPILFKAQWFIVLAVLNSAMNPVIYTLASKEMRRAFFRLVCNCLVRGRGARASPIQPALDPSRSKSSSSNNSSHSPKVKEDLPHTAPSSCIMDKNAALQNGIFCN
# [15] = tested on: donor (GFP+) cells; assay: Bone marrow transplant after lethal irradiation with equal number of mobilized cells; conditions: two-week chimerism after competitive BMT with equal numbers of mobilized cells; FIG. 10D
# Description: WT mice were irradiated & reconstituted with mobilized peripheral blood cells from GFP+ mice. After varying amounts of time, blood was collected via the retro-orbital sinus and bone marrow was harvested to assess chimerism over time.
# 100 μL blood was plated on methocult stem cell differentiation medium and after 6 days colony forming units were quantified. […] Cells tested included—Host cells, PB donor cells and BM donor cells were tested. Treatments included—AMD cells, A+V cells, AMD Sca1+, A+V Sca1+, AMD CD45+, A+V CD45+, AMD CD11b+, and A+V CD11b+.
# [16] = tested on: whole BMCs on FBMD-1 stromal cells; assay: Cobblestone area-forming cell assay; format: cell-based, mouse; conditions: BMCs pre-treated 30 minutes; FIG. 19
# Text: Ordinate—% Positive Wells.
# [17] = tested on: smooth muscle; conditions: daily injections; cited from earlier work
# [18] = PLAGA film, ligated feeder artery
smiles,measurement,setting,value
"CCCCCCCCc1ccc(CCC(N)(CO)CO)cc1 [FTY720, 2-amino-2-[2-(4-octylphenyl)ethyl]propane 1,3-diol]",recruitment of vessel-associated CX3CR1+ cells,[1]; CX3CR1-eGFP mice,recruitment of vessel-associated CX3CR1+ cells
same,remodeling in ischemic muscle,[1]; [18],induces remodeling in ischemic muscle
same,tortuosity of vessels,[1]; [18],promotes tortuosity of vessels
same,migration of AMs towards SDF-1,[2],increased
same,EPC-ECs in dorsal tissue,[3],increased
same,recruitment of IMs to dorsal tissue,[3]; FIG. 6D,attenuated
same,HSC migration / homing toward S1P,[4],abolishes
same,HSC migration / homing toward SDF-1,[4],improves
same,osseous tissue ingrowth,[5],significantly increases
same,proportion of mature smooth muscle cell-invested microvessels within the bony defect,[5],significantly increases
same,migration of IMs towards S1P,[6],decreased
same,migration of IMs towards SDF-1,[6],decreased
same,half-life,[7],approximately 7 days
same,arteriole formation and enlargement,[8],promotes formation of new arterioles and structural enlargement of existing arterioles
same,FTY720-induced microvascular remodeling,[9],impaired
CCCCCCCCc1ccc(CC[C@](N)(CO)COP(=O)(O)O)cc1 [FTY720-P],total number of cells migrating toward SDF-1,"[10]; 12.5 nM SDF-1, 4 hours, FIG. 11E",significantly increased
same,percentage of CD90+; CD45−/CD11b− cells migrating toward SDF-1,[10]; FIG. 11F,higher percentage
"CCCCCCCCCCCCC/C=C/[C@@H](O)[C@@H](N)COP(=O)(O)O [S1P, Sphingosine 1-phosphate]",solubility in aqueous solutions,[11],insoluble
same,half-life in blood,[7],less than 1 hour
CCCCCCCCc1ccc(C2CCC(N)(CO)C2)cc1 (stereo not shown) [VPC01091],bone regeneration compared to the empty defect controls,"[12]; systemic 1 mpk, day after surgery and 3 weeks post-surgery, microCT, FIG. 11",substantial bi-weekly increase
same,percentage of CD54 and CD90 positive cells in the defect region,"[12]; week 3, FIG. 12a",increase
same,percentage of CD54 and CD90 positive cells in the blood,"[12]; week 6, FIG. 12b",increase
same,HSC migration / homing toward S1P,[4],sensitized
same,HSC migration / homing toward SDF-1,[4],desensitized
same,activity at S1P1 receptor,[13],agonist
same,activity at S1P3 receptor,[14],antagonist
same,engraftment and repopulation efficiency in vivo,[15],does not impair
CCCCCCCCc1ccc(C2CCC(N)(COP(=O)(O)O)C2)cc1 (stereo not shown) [VPC01211],HSC migration / homing toward S1P,[4],did not affect
same,HSC migration / homing toward SDF-1,[4],abrogated
same,adhesion / engraftment on bone marrow stromal cell layer,[16],less engraftment than AMD3100
CCCCCCCCc1cccc(NC(=O)[C@H](N)CCP(=O)(O)O)c1 [VPC44116],smooth muscle proliferation and migration,[17],significantly decreased
